Measured values as given in patent US4761422A, “(2-amino-4-aryl-thiazole-5-yl)ethanols and their derivatives having diuretic activity and methods for preparing the same” (Lusofarmaco Istituto Lusofarmaco d'Italia SpA, priority 1986, dated 1988).

Columns and labels:
[1] = Diuretic activity in rat (DA200, dosage causing doubling of the urinary volume), method of Fregnan et al.; type: in vivo; conditions: po, os
From the text: The diuretic activity has been determined according to the method by G. B. Fregnan et al., Gazzetta Medica Italiana 128, 384 (1969).
In the Table given hereinbelow the pharmacological data of some of the compounds according to the invention in comparison with thienyl acid are set forth.
*Dosage causing doubling of the urinary volume

[2] = Acute toxicity in rat (DL50); conditions: in vivo, ip

Row | SMILES | ED (doubling of urinary volume) [1] [mg/kg] | LD50 [2] [mg/kg]
1 | CCN(CC)c1nc(-c2ccc(Cl)cc2)c(CCOC(N)=O)s1 [LR 525, 2-[2-diethylamino-4-(p-chlorophenyl)thiazole-5-yl]ethanol carbamate] | 3 | > 2000
2 | NC(=O)OCCc1sc(N)nc1-c1ccc(Cl)cc1 [LR 890, 2-[2-amino-4-(p-chlorophenyl)thiazole-5-yl]ethanol carbamate] | 3 | > 2000
3 | CNc1nc(-c2ccc(Cl)cc2)c(CCOC(N)=O)s1 [LR 892, 2-[2-methylamino-4-(p-chlorophenyl)thiazole-5-yl]ethanol carbamate] | 10 | > 1000
4 | Nc1nc(-c2ccc(Cl)cc2)c(CCO)s1 [LR 409, 2-[2-amino-4-(p-chlorophenyl)thiazole-5-yl]ethanol] | 30 | 280
5 | CNc1nc(-c2ccc(Cl)cc2)c(CCO)s1 [LR 861, 2-[2-methylamino-4-(p-chlorophenyl)thiazole-5-yl]ethanol] | 100 | 750
6 | NC(=O)NC(=O)OCCc1sc(N)nc1-c1ccc(Cl)cc1 [LR 856] | 5 | > 1000
7 | O=C(O)COc1ccc(C(=O)c2cccs2)c(Cl)c1Cl [Thienyl acid, reference compound] | 100 | 350
8 | CCN(CC)c1nc(-c2ccc(Cl)cc2)c(CCO)s1 [LR 440, 2-[2-diethylamino-4-(p-chlorophenyl)thiazole-5-yl]ethanol] | 100 | > 1000
